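96-well plates; 48 h exposure; 5 concentrations. Endpoints by linear interpolation between flanking doses. Not reached: highest tested concentration assigned. The concentration for 50% growth inhibition is given as GI50.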 Active and inactive are the calls of the source. Rule as the data show it: active = GI50 up to about 1.1 µM and inactive = higher.
What was measured:
Assay in all cases: inhibition of tumour cell growth, NCI panel, 48 h
OVCAR-5 = test system: OVCAR-5
K562 = test system: K562
OVCAR-4 = test system: OVCAR-4
NCI/ADR-RES = test system: NCI/ADR-RES
HCT-116 = test system: HCT-116
UO-31 = test system: UO-31
SK-MEL-28 = test system: SK-MEL-28
T47D = test system: T47D
SK-MEL-2 = test system: SK-MEL-2
Malme-3M = test system: Malme-3M
M14 = test system: M14
LOX IMVI = test system: LOX IMVI
SF-539 = test system: SF-539
HCT-15 = test system: HCT-15
A498 = test system: A498
HOP-62 = test system: HOP-62
TK-10 = test system: TK-10
CCRF-CEM = test system: CCRF-CEM
UACC-62 = test system: UACC-62
MDA-N = test system: MDA-N

SMILES	GI50 (OVCAR-5)	GI50 (K562)	GI50 (OVCAR-4)	GI50 (NCI/ADR-RES)	GI50 (HCT-116)	GI50 (UO-31)	GI50 (SK-MEL-28)	GI50 (T47D)	GI50 (SK-MEL-2)	GI50 (Malme-3M)	GI50 (M14)	GI50 (LOX IMVI)	GI50 (SF-539)	GI50 (HCT-15) [nM]	GI50 (A498)	GI50 (HOP-62)	GI50 (TK-10)	GI50 (CCRF-CEM)	GI50 (UACC-62)	GI50 (MDA-N)
Cc1ccc(C(=O)/C=C2\Nc3cccnc3NC2=O)cc1	> 100000 nM (inactive)	> 100000 nM (inactive)	> 100000 nM (inactive)	> 100000 nM (inactive)	> 100000 nM (inactive)	> 100000 nM (inactive)	> 100000 nM (inactive)	> 100000 nM (inactive)	> 100000 nM (inactive)	95900 nM (inactive)	> 100000 nM (inactive)	> 100000 nM (inactive)	60400 nM (inactive)	> 100000	> 100000 nM (inactive)	33600 nM (inactive)	> 100000 nM (inactive)	> 100000 nM (inactive)	> 100000 nM (inactive)	> 100000 nM (inactive)
CNC(=O)c1ccccc1[S+]1c2cccc3cccc(c23)C(=O)N1C (stereo not given)	> 100000 nM (inactive)	> 100000 nM (inactive)	> 100000 nM (inactive)	> 100000 nM (inactive)	> 100000 nM (inactive)	> 100000 nM (inactive)	> 100000 nM (inactive)	> 100000 nM (inactive)	> 100000 nM (inactive)	> 100000 nM (inactive)	> 100000 nM (inactive)	> 100000 nM (inactive)	> 100000 nM (inactive)	> 100000	> 100000 nM (inactive)	> 100000 nM (inactive)	> 100000 nM (inactive)	> 100000 nM (inactive)	> 100000 nM (inactive)	> 100000 nM (inactive)
Cc1ccc2c(c1)C(=O)/C(=C\c1ccc(Cl)cc1)CCS2(=O)=O	12400 nM (inactive)	1420 nM (inactive)	2640 nM (inactive)	2180 nM (inactive)	1650 nM (inactive)	2900 nM (inactive)	4590 nM (inactive)	1410 nM (inactive)	19400 nM (inactive)	2070 nM (inactive)	4050 nM (inactive)	2540 nM (inactive)	2000 nM (inactive)	1970	12400 nM (inactive)	6670 nM (inactive)	2100 nM (inactive)	2000 nM (inactive)	3150 nM (inactive)	4810 nM (inactive)
COc1cc(NCc2ccc3nc(N)nc(N)c3c2C)cc(OC)c1OC	1850 nM (inactive)	38 nM (active)	22400 nM (inactive)	2740 nM (inactive)	35.2 nM (active)	1050 nM (active)	313 nM (active)	65.8 nM (active)	17900 nM (inactive)	1550 nM (inactive)	0.24 nM (active)	25 nM (active)	26.9 nM (active)	25	2390 nM (inactive)	28.6 nM (active)	10.5 nM (active)	25 nM (active)	25 nM (active)	0.2 nM (active)
CN(C)CCNC(=O)c1ccc(Cl)c2cc3ccccc3nc12	1830 nM (inactive)	553 nM (active)	653 nM (active)	927 nM (active)	408 nM (active)	404 nM (active)	1820 nM (inactive)	3010 nM (inactive)	2010 nM (inactive)	731 nM (active)	1230 nM (inactive)	230 nM (active)	946 nM (active)	540	143 nM (active)	1000 nM (active)	1070 nM (active)	394 nM (active)	652 nM (active)	889 nM (active)
COC1=CC(=O)c2c(O)c3c(c(O)c2C1=O)C=C(C)OC3O (stereo not given)	2430 nM (inactive)	1440 nM (inactive)	1920 nM (inactive)	1510 nM (inactive)	569 nM (active)	4040 nM (inactive)	1270 nM (inactive)	2130 nM (inactive)	1960 nM (inactive)	277 nM (active)	281 nM (active)	597 nM (active)	1580 nM (inactive)	349	2120 nM (inactive)	2880 nM (inactive)	2890 nM (inactive)	1640 nM (inactive)	859 nM (active)	1660 nM (inactive)
O=c1nc2n(CCO)c(-c3ccccc3)c(-c3ccccc3)nc-2c(=O)[nH]1	> 100000 nM (inactive)	> 100000 nM (inactive)	> 100000 nM (inactive)	> 100000 nM (inactive)	> 100000 nM (inactive)	> 100000 nM (inactive)	> 100000 nM (inactive)	> 100000 nM (inactive)	> 100000 nM (inactive)	> 100000 nM (inactive)	> 100000 nM (inactive)	> 100000 nM (inactive)	> 100000 nM (inactive)	> 100000	> 100000 nM (inactive)	> 100000 nM (inactive)	> 100000 nM (inactive)	> 100000 nM (inactive)	> 100000 nM (inactive)	> 100000 nM (inactive)

From ChEMBL document CHEMBL1201862, “PubChem BioAssay data set” (2004)
